Common to all, as to type: functional, cell-based
Assay [1] deals with T1, Sphingosine 1-phosphate receptor 4 (Homo sapiens, UniProt O95977).
T1 sequence (O95977 whole entry): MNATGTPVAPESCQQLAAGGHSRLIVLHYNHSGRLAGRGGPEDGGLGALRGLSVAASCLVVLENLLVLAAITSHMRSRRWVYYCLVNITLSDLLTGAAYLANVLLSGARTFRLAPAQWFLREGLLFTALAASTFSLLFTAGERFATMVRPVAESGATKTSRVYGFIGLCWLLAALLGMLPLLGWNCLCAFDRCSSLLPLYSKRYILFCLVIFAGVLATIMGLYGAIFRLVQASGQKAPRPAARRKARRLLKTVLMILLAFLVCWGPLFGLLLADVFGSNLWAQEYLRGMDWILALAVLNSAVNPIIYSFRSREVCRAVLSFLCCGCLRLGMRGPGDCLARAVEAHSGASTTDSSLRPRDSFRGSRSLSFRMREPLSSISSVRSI
In words: Agonism of human S1P-4 receptor expressed in CHO cells, 90-120 min in pH 7.4 using [35S]GTP-gamma-S as radioligand. A general note: GTPγS resists hydrolysis and so accumulates on activated G proteins.

Assay [2] deals with Sphingosine 1-phosphate receptor 2 (Homo sapiens, UniProt O95136). The assay is described as follows: Agonism of human S1P-2 receptor expressed in CHO cells, 90-120 min in pH 7.4 using [35S]GTP-gamma-S as radioligand.
Chain of Sphingosine 1-phosphate receptor 2 (O95136 whole entry): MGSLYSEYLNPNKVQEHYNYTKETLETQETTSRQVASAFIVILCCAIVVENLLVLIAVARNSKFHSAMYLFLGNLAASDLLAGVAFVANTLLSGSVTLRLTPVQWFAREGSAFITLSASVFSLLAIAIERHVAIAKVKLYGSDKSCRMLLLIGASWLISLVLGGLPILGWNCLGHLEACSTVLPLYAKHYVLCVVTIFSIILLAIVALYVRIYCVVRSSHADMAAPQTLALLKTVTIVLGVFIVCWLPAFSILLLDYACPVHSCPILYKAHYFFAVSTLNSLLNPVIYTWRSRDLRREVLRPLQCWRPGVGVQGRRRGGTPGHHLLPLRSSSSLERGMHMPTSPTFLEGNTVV
Assay [3] deals with Sphingosine 1-phosphate receptor 3 (Homo sapiens, UniProt Q99500). In words: Agonism of human S1P-3 receptor expressed in CHO cells, 90-120 min in pH 7.4 using [35S]GTP-gamma-S as radioligand.
Chain of Sphingosine 1-phosphate receptor 3 (Q99500 whole entry): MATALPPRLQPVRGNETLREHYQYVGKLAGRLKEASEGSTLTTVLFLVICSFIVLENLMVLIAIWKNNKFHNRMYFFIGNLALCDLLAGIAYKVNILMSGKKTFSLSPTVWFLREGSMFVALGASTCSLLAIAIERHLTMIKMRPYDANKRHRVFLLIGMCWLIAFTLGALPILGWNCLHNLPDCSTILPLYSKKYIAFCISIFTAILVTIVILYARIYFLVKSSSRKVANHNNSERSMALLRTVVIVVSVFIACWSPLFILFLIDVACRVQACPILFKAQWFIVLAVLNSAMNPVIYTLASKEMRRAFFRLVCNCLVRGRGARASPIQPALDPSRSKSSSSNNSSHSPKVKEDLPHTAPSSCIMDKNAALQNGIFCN
Assay [4] concerns the target Sphingosine 1-phosphate receptor 5 (Homo sapiens, UniProt Q9H228). In words: Agonism of human S1P-5 receptor expressed in CHO cells, 90-120 min in pH 7.4 using [35S]GTP-gamma-S as radioligand.

Bounds are passed on as bounds.

As a reminder, the EC50 is the concentration that produces a half-maximal response.

Chain of Sphingosine 1-phosphate receptor 5 (Q9H228 whole entry): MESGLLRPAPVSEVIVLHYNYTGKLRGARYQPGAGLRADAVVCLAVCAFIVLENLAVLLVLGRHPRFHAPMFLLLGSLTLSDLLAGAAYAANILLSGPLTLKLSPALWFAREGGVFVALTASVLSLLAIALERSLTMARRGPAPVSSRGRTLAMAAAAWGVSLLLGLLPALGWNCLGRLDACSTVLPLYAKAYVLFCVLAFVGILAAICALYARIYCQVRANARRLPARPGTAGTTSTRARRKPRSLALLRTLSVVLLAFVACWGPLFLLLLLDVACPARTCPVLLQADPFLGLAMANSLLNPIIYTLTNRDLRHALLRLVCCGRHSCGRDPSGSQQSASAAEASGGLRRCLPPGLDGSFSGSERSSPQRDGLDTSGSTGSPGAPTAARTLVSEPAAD

In turn, `CCCCCCCCc1ccc(CCC(N)(CO)COP(=O)(O)O)cc1` (racemic) showed a half-maximal effective concentration (EC50) in assay [1] of 2.4 nM. Still for that read-out and setting: under `CCCCCCCCc1ccc(CC[C@](N)(CO)COP(=O)(O)O)cc1` [FTY720-P] stands 0.6 nM.

In the case of `CCCCCCCCc1ccc(CCC(N)(CO)CO)cc1` [FINGOLIMOD], the EC50 in assay [2], in assay [3], in assay [1] and in assay [4] was over 10000 nM throughout. `CCCCCCCCc1ccc(CC[C@@](N)(CO)COP(=O)(O)O)cc1`: in assay [1], the EC50 came to 80.1 nM.
